Measurements from PubChem BioAssay AID1918952 (Molecular Pharmacology Branch, DTP, NCI, 2023).

Tested on: LG0703-F948-PDC complex spheroid viability
Assay: Anticancer human tumor LG0703-F948-PDC patient-derived lung adenocarcinoma cell line growth inhibition
Settings: for IC50: curve of first compound; for viability, T/C: stronger effect = lower value
Method in brief: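 Complex spheroids of tumor cells with HUVEC and human MSCs, exposed to iadademstat combined with other agents. Each agent tested in half-log steps from near clinical Cmax (else 10 microM top), DMSO ≤0.25%.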

[1] = second compound 0.1 µM, first compound 0.000316 µM
[2] = second compound 0.1 µM, first compound 0.001 µM
[3] = second compound 0.1 µM, first compound 0.00316 µM
[4] = second compound 0.1 µM, first compound 0.01 µM
[5] = second compound 0.1 µM, first compound 0.0316 µM
[6] = second compound 0.1 µM, first compound 0.1 µM
[7] = second compound 0.316 µM, first compound 0.000316 µM
[8] = second compound 0.316 µM, first compound 0.001 µM
[9] = second compound 0.316 µM, first compound 0.00316 µM
[10] = second compound 0.316 µM, first compound 0.01 µM
[11] = second compound 0.316 µM, first compound 0.0316 µM
[12] = second compound 0.316 µM, first compound 0.1 µM
[13] = second compound 1 µM, first compound 0.000316 µM
[14] = second compound 1 µM, first compound 0.001 µM
[15] = second compound 1 µM, first compound 0.00316 µM
[16] = second compound 1 µM, first compound 0.01 µM
[17] = second compound 1 µM, first compound 0.0316 µM
[18] = second compound 1 µM, first compound 0.1 µM
[19] = second compound 3.16 µM, first compound 0.000316 µM
[20] = second compound 3.16 µM, first compound 0.001 µM
[21] = second compound 3.16 µM, first compound 0.00316 µM
[22] = second compound 3.16 µM, first compound 0.01 µM
[23] = second compound 3.16 µM, first compound 0.0316 µM
[24] = second compound 3.16 µM, first compound 0.1 µM
[25] = second compound 10 µM, first compound 0.000316 µM
[26] = second compound 10 µM, first compound 0.001 µM
[27] = second compound 10 µM, first compound 0.00316 µM
[28] = second compound 10 µM, first compound 0.01 µM
[29] = second compound 10 µM, first compound 0.0316 µM
[30] = second compound 10 µM, first compound 0.1 µM
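Also: spheroids exposed to agents for seven days before readout.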
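For viability, T/C in this document: 100% = DMSO vehicle control wells as normalization base.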

| SMILES | IC50 (second compound 0.1 µM) | IC50 (second compound 0.316 µM) | IC50 (second compound 1 µM) | IC50 (second compound 3.16 µM) | IC50 (second compound 10 µM) | viability, T/C [3] | viability, T/C [4] | viability, T/C [5] | viability, T/C [6] | viability, T/C [9] | viability, T/C [10] | viability, T/C [11] | viability, T/C [12] | viability, T/C [15] | viability, T/C [16] | viability, T/C [17] | viability, T/C [18] | viability, T/C [21] | viability, T/C [22] | viability, T/C [23] | further results |
| --- | --- | --- | --- | --- | --- | --- | --- | --- | --- | --- | --- | --- | --- | --- | --- | --- | --- | --- | --- | --- | --- |
| CC(C)CC(NC(=O)C(Cc1ccccc1)NC(=O)c1cnccn1)B(O)O (stereo not given) + NC1CCC(NC2CC2c2ccccc2)CC1 | < 0.316 nM | < 0.316 nM | < 0.316 nM | < 0.316 nM | < 0.316 nM | 0.43% | 0.05% | 0.04% | 0.13% | 0.03% | 0.82% | 0.07% | 0.11% | 0.12% | 0.06% | 0.02% | 0.1% | 0.04% | 0.1% | 0.03% | viability, T/C [1]: 8.14%; viability, T/C [2]: 0.63%; viability, T/C [7]: 8.59%; viability, T/C [8]: 1.33%; viability, T/C [13]: 7.45%; viability, T/C [14]: 0.3%; viability, T/C [19]: 5.46%; viability, T/C [20]: 0.14%; viability, T/C [24]: 0.12%; viability, T/C [25]: 1.9%; viability, T/C [26]: 0.49%; viability, T/C [27]: 0.29%; viability, T/C [28]: 0.18%; viability, T/C [29]: 0.13%; viability, T/C [30]: 0.25% |
| CC(C)CC(NC(=O)CNC(=O)c1cc(Cl)ccc1Cl)B1OC(=O)CC(CC(=O)O)(C(=O)O)O1 (stereo not given) + NC1CCC(NC2CC2c2ccccc2)CC1 | 4.54 nM | 4.94 nM | 4.29 nM | 3.05 nM | 1.98 nM | 66.7% | 19.8% | 2.45% | 0.73% | 69.4% | 19% | 2.48% | 0.54% | 60.8% | 17% | 2.68% | 1.21% | 47.6% | 13.8% | 2.43% | viability, T/C [1]: 118%; viability, T/C [2]: 95.6%; viability, T/C [7]: 104%; viability, T/C [8]: 102%; viability, T/C [13]: 118%; viability, T/C [14]: 115%; viability, T/C [19]: 112%; viability, T/C [20]: 127%; viability, T/C [24]: 0.36%; viability, T/C [25]: 109%; viability, T/C [26]: 97.7%; viability, T/C [27]: 17.4%; viability, T/C [28]: 6.56%; viability, T/C [29]: 0.78%; viability, T/C [30]: 0.48% |
| COc1cc(Nc2ncc3c(n2)-c2ccc(Cl)cc2C(c2c(F)cccc2OC)=NC3)ccc1C(=O)O + NC1CCC(NC2CC2c2ccccc2)CC1 | 218 nM | 172 nM | 201 nM | 229 nM | 229 nM | 87.8% | 80.6% | 81.6% | 73.5% | 96.4% | 86.7% | 79.8% | 61.6% | 104% | 87.6% | 91.4% | 71% | 110% | 94.1% | 94.4% | viability, T/C (second compound 0.1 µM, first compound 0.316 µM): 38.9%; viability, T/C (second compound 0.1 µM, first compound 1 µM): 6.3%; viability, T/C (second compound 0.316 µM, first compound 0.316 µM): 36.6%; viability, T/C (second compound 0.316 µM, first compound 1 µM): 5.23%; viability, T/C (second compound 1 µM, first compound 0.316 µM): 36.2%; viability, T/C (second compound 1 µM, first compound 1 µM): 5.15%; viability, T/C [24]: 83.7%; viability, T/C (second compound 3.16 µM, first compound 0.316 µM): 36.9%; viability, T/C (second compound 3.16 µM, first compound 1 µM): 4.29%; viability, T/C [27]: 108%; viability, T/C [28]: 85.3%; viability, T/C [29]: 89.9%; viability, T/C [30]: 83.7%; viability, T/C (second compound 10 µM, first compound 0.316 µM): 37.1%; viability, T/C (second compound 10 µM, first compound 1 µM): 2.91% |
